Key:
E. coli J53 (mcr-1) = test: MIC of colistin in presence and absence of compound, broth dilution; format: cell-based, Escherichia coli; details: antibiotic resistant E. coli (FIG. 20)
[1] = general statement; cited from earlier work
K. pneumoniae = test: Starvation-induced tolerance assay, K. pneumoniae; format: cell-based, Klebsiella pneumoniae
Procedure: (§1) Tolerance assay. […] Standard serial dilution and plating on LB agar was performed before and after ampicillin treatment for 4 hrs, 2 days, 4 days and 6 days to determine the fraction of the test population that survived at different time points during the course of treatment.
(§2) Standard serial dilution and plating on LB agar was performed on samples collected every 24 hrs to assess changes in the size of the sub-population that survived during the treatment process.
(§3) Upon reaching the exponential phase, bacteria were washed and re-suspended in saline (0.9% NaCl), and then incubated at 37° C. under constant shaking (250 rpm/min) for 24 hrs. […] Standard serial dilution and plating on LB agar were performed before and after ampicillin treatment for 4 hrs, 1 day, 2 days and 4 days to determine the fraction of the test population that survived at different time points during the course of treatment.

[2] = test system: E. coli BW25113 wild type; test: Antibiotic accumulation assay (BOCILLIN, flow cytometry), wild type; format: cell-based, Escherichia coli; details: 24 hrs starvation, BOCILLIN 10 μg/mL
Procedure: (§4) Antibiotic accumulation assay. The overnight bacteria culture was diluted 100-fold in LB broth and cultivated for about 1 hr until the OD600 value reached 0.2 (exponential phase). Aliquots of this exponential phase culture were washed and re-suspended in saline, cultured at 37° C. under constant shaking (250 rpm) for 24 hrs, followed by addition of CCCP (1 μM). After 5 mins, BOCILLIN™ FL Penicillin (10 μg/mL) was added and incubated at 37° C. with shaking at 250 rpm for 1 hr. Upon washing twice with PBS, fluorescence signal was measured by flow cytometry CytoFLEX (Beckman). Microorganisms were identified by FSC (forward scatter) and SSC (side scatter) parameters. Fluorescence intensity was measured at 488-nm excitation, 525-nm emission.

S. aureus = test: Starvation-induced tolerance assay, S. aureus; format: cell-based, Staphylococcus aureus
Procedure: as §1, §2, §3

S. typhimurium = test: Starvation-induced tolerance assay, S. typhimurium; format: cell-based
Procedure: as §1, §2, §3

A. baumannii = test: Starvation-induced tolerance assay, A. baumannii; format: cell-based, Acinetobacter baumannii
Procedure: as §1, §2, §3

Gram negative strains = test: Minimal inhibitory concentration, Gram negative strains; format: cell-based; details: all Gram negative test strains
Description: Determination of Minimal Inhibitory Concentrations (MICs).

E. coli BW25113 = test: Starvation-induced tolerance assay, wild type E. coli; format: cell-based, Escherichia coli; details: for size of the E. coli population: within 24 hrs
Procedure: as §1, §2, §3

E. coli wild type strain = test: Assessment of efflux activity (Nile Red); format: cell-based, Escherichia coli; details: CCCP 100 μM, within 30 mins, increased from ~6500 RFU
Procedure: Assessment of efflux activity. A10-mL portion of bacterial population which had been subjected to 24 hrs starvation was centrifuged at 6000×g for 5 mins at room temperature. The pellet was re-suspended in PBS containing 1 mM MgCl2(PPB) and adjusted to OD600 0.2. Nile Red which fluoresces only weakly in aqueous solutions but becomes strongly fluorescent in nonpolar environments was added to produce a final concentration of 5 μM followed by incubation at 37° C. for 30 mins, with 250 rpm shaking. CCCP was then added to produce a final concentration of 100 μM; fluorescence was measured for a period of 30 mins by a Clariostar Microplate Reader at an excitation wavelength of 544±10 nm and an emission wavelength of 650±10 nm.

E. coli = test: Membrane potential assay DiSC3(5), E. coli; format: cell-based, Escherichia coli; details: valinomycin 1 μM, positive control, exponential phase
Procedure: Membrane potential assay. The transmembrane electrical potential was measured by using a membrane potential-sensitive probe, DiSC3(5). Bacterial population in either the exponential phase (OD600 of 0.2) or under 24 hrs starvation (resuspended in saline) were collected by centrifugation (6000×g, 2 mins), washed twice and re-suspended in PBS (pH 7.4), and then adjusted to OD600 of 0.2. KCl and DiSC3(5) were added until final concentration of 100 mM and 1 μM was respectively reached, followed by incubation at room temperature for 25 mins in the dark to allow the dye to penetrate through the outer membrane and produce a quenching effect. […] The fluorescence reading was monitored by using a Clariostar Microplate Reader (BMG LABTECH) at an excitation wavelength of 622±10 nm and an emission wavelength of 670±10 nm for 10 mins. Upon depolarization, the dye was rapidly released into the medium, resulting in dequenching and facilitating detection fluorometrically. […] The sample preparation method is same as that prior to testing with the Microplate Reader except for the last step. Briefly, cells were washed with PBS three times before confocal observation to remove extracellular DiSC3(5) dye. […] DiSC3(5) was excited by 638 nm laser and fluorescence was detected by HyD detector at emission wavelength 675±25 nm. The images were acquired and analyzed by the Leica Application Suite X (LAS X) software. […]

[3] = test system: E. coli BW25113 and its ΔpspA derivative; test: Membrane permeability assay (SYTOX Green); format: cell-based, Escherichia coli; details: colistin, positive control; similar in wild type and ΔpspA
Procedure: Membrane permeability assay. The membrane permeability or integrity of the test organisms was measured using SYTOX Green (ThermoFisher), which can enter the cell through damaged cell membrane and bind to nucleic acid, generating fluorescence signal. E. coli BW25113 and its ΔpspA derivative at a concentration of OD600 of 0.2, which had been subjected to 24 hrs starvation, were collected by centrifugation (6000×g, 2 mins), washed twice and re-suspended in saline. SYTOX Green was then added to give a final concentration of 1 μM, followed by incubation for 30 min in the dark at room temperature. The relative fluorescence signal in the wild type and ΔpspA strain was measured by a Cary Eclipse Fluorescence Spectrophotometer (Agilent), with an excitation wavelength of 488±10 nm and an emission wavelength of 523±10 nm.

S. typhimurium PY1 = test: Mouse peritonitis infection (tolerance sepsis) model; format: in vivo
Procedure: NIH male mice of about six-weeks-old with body weight of ˜20 g were used, 6 mice per group. The animals were allowed to acclimate to the housing facility for 5 days. The mice were made neutropenic by administering 150 mg/kg cyclophosphamide 3 days and 1 day before infection. Different amounts of S. typhimurium strain PY01 (2.8×10^5 CFU, 7.6×10^5 CFU or 1.5×10^6 CFU) were inoculated into the animals via intraperitoneal injection. The mice were subjected to ceftazidime (20 mg/kg), econazole (20 mg/kg) or ceftazidime combining econazole treatment (i.p.) 24 h after inoculation, at 12 hrs intervals for 72 hrs randomly. The mortality rate of the test mice was recorded every 12 hrs. After 72 h of treatment, live mice were euthanized and subjected to peritoneal washes which involved injection of 2 mL of saline into the intraperitoneal space, followed by abdominal massage. The abdomen was then cut open and 200 μL of peritoneal fluid were collected and serially diluted in saline. A 100 μL portion of each dilution was spread on LB plates, followed by incubation overnight at 37° C. Colonies were counted to determine the bacterial load in the test samples, which were expressed as CFU/ml. Statistical analysis and ethic approval were the same as described above.

E. coli ΔpspA = test: Antibiotic accumulation assay (BOCILLIN, flow cytometry), ΔpspA; format: cell-based, Escherichia coli; details: 24 hrs starvation, no CCCP
Procedure: as §4

[4] = CCCP 100 μM, absence of ampicillin
[5] = low concentration of CCCP + 10×MIC ampicillin

## N#C/C(=C1/SC[C@@H](c2ccc(Cl)cc2Cl)S1)n1ccnc1 [lulionazole]
E. coli J53 (mcr-1)
  effect of co-administration with colistin: bactericidal synergistic effect

## C=CCOC(Cn1ccnc1)c1ccc(Cl)cc1Cl (stereo not drawn) [enilconazole]
E. coli J53 (mcr-1)
  effect of co-administration with colistin: bactericidal synergistic effect

## N#CC(C#N)=NNc1cccc(Cl)c1 [CCCP, carbonyl cyanide-m-chlorophenylhydrazone]
[1]
  toxicity or safety in human: toxic to human
K. pneumoniae; [4]
  eradication of tolerant cells: could eradicate tolerant bacteria cells
K. pneumoniae; [5]
  effect on phenotypic ampicillin tolerance: sufficient to suppress or even completely abolish phenotypic ampicillin tolerance
[2]; CCCP (1 μM) treatment
  cells exhibiting high BOCILLIN intensity (>10^3 RFU): 97.86%
S. aureus; [4]
  eradication of tolerant cells: could eradicate tolerant bacteria cells
S. aureus; [5]
  effect on phenotypic ampicillin tolerance: sufficient to suppress or even completely abolish phenotypic ampicillin tolerance
S. typhimurium; [4]
  eradication of tolerant cells: could eradicate tolerant bacteria cells
S. typhimurium; [5]
  effect on phenotypic ampicillin tolerance: sufficient to suppress or even completely abolish phenotypic ampicillin tolerance
A. baumannii; [4]
  eradication of tolerant cells: could eradicate tolerant bacteria cells
A. baumannii; [5]
  effect on phenotypic ampicillin tolerance: sufficient to suppress or even completely abolish phenotypic ampicillin tolerance
Gram negative strains
  MIC: > 160 µM
E. coli BW25113; CCCP 1 μM + ampicillin, […], after 24 hrs starvation
  population size: ~80 cells/mL
E. coli BW25113; CCCP 1 μM + ciprofloxacin 0.5 μg/mL
  tolerance to ciprofloxacin: not affected
E. coli BW25113; CCCP 1 μM + gentamicin 10 μg/mL
  phenotypic tolerance to gentamicin upon PMF dissipation: cannot be maintained
E. coli BW25113; CCCP 1 μM alone, […], after 24 hrs starvation
  size of the surviving population: remained unchanged
E. coli BW25113; CCCP 100 μM + ampicillin
  size of the E. coli population: ~2×10^4 cells/mL
E. coli BW25113; CCCP 100 μM alone, from ~2.5×10^7 cells/mL
  size of the E. coli population: ~5×10^5 cells/mL
E. coli BW25113; CCCP 100 μM with ampicillin
  time to eradication of the entire antibiotic tolerant population: ≤ 48 h
E. coli BW25113; CCCP 100 μM without ampicillin
  time to eradication of the entire antibiotic tolerant population: ≤ 48 h
E. coli BW25113; CCCP (100 μM) + ampicillin
  killing effect compared with CCCP alone: significantly stronger
E. coli BW25113; CCCP (concentration not stated) and ampicillin, six days
  entire tolerant cell population: ~50 cells/mL
E. coli BW25113; CCCP alone (100 μM)
  killing of bacterial tolerant cells: kill bacterial tolerant cells
E. coli wild type strain
  Nile Red fluorescence intensity: ~10000 RFU

## Clc1ccc(C(Cn2ccnc2)OCc2ccsc2Cl)c(Cl)c1 (stereo not drawn) [tioonazole]
E. coli J53 (mcr-1)
  effect of co-administration with colistin: bactericidal synergistic effect

## CC(C)[C@@H]1NC(=O)[C@H](C)OC(=O)[C@@H](C(C)C)NC(=O)[C@@H](C(C)C)OC(=O)[C@H](C(C)C)NC(=O)[C@H](C)OC(=O)[C@@H](C(C)C)NC(=O)[C@@H](C(C)C)OC(=O)[C@H](C(C)C)NC(=O)[C@H](C)OC(=O)[C@@H](C(C)C)NC(=O)[C@@H](C(C)C)OC1=O [valinomycin]
E. coli
  effect on membrane potential (DiSC3(5) fluorescence): caused dissipation of membrane potential

## colistin
[3]
  effect on membrane permeability (SYTOX Green): cause membrane damage and an eventual increase in membrane permeability

## Clc1ccc(COC(Cn2ccnc2)c2ccc(Cl)cc2Cl)c(Cl)c1 (stereo not drawn) [miconazole]
E. coli J53 (mcr-1)
  effect of co-administration with colistin: bactericidal synergistic effect

## CC(C)(O/N=C(\C(=O)N[C@@H]1C(=O)N2C(C(=O)[O-])=C(C[n+]3ccccc3)CS[C@H]12)c1csc(N)n1)C(=O)O [ceftazidime]
S. typhimurium PY1; ceftazidime alone 20 mg/kg, 1.5×10^6 CFU
  infected mice rescued: 10%
S. typhimurium PY1; ceftazidime alone 20 mg/kg, inoculation of 7.6×10^5 CFU
  protection of the test animals from death: could protect the test animals from being killed
S. typhimurium PY1; ceftazidime only 20 mg/kg, lower inoculum (FIG. 19F), P=0.0004
  rate of eradication of PY1 tolerant sub-population compared with the econazole and ceftazidime combination: significantly slower
S. typhimurium; ceftazidime alone (100 μg/ml), 96 hrs (FIG. 16F)
  size of the tolerant population: ~1.4×10^7 CFU/mL

## Clc1ccc(C(Cn2ccnc2)OCc2csc3c(Cl)cccc23)c(Cl)c1 (stereo not drawn) [sertaconazole]
E. coli J53 (mcr-1)
  effect of co-administration with colistin: bactericidal synergistic effect

## Cc1cc(C)n2c1C=C1C=CC(CCC(=O)Nc3ccc(OCC(=O)N[C@@H]4C(=O)N5[C@@H]4SC(C)(C)[C@@H]5C(=O)[O-])cc3)=[N+]1[B-]2(F)F.[Na+] [BOCILLIN]
E. coli ΔpspA
  cells that exhibited high BOCILLIN level: 18.52%
[2]; absence of CCCP
  cells exhibiting high BOCILLIN intensity (>10^3 RFU): 10.45%

— patent publication US20240285586A1, “METHODS FOR TREATING BACTERIAL CELL POPULATIONS” (THE HONG KONG POLYTECHNIC UNIVERSITY, priority 2021, published 2024)
